From paper PMC10938783, “A novel pan-PI3K inhibitor KTC1101 synergizes with anti-PD-1 therapy by targeting tumor suppression and immune activation” (Molecular Cancer, 2024)

System: B16 cells gene expression
Assay: RNA-Seq (DEGs, GSEA, heatmaps) of B16 cells
Conditions: KTC1101 0.2μM, B16 cells, GSEA KEGG

COc1cc(N)cc2c1nc(C(F)F)n2-c1nc(N2CCCOCC2)nc(N2CCOCC2)n1 [KTC1101, 2-(difluoromethyl)-4-methoxy-1-(4-morpholino-6-(1,4-oxazepan-4-yl)-1,3,5-triazin-2-yl)-1H-benzo[d]imidazol-6-amine]
NES, mmu00600 Sphingolipid metabolism: -0.9518 | NES, mmu00860 Porphyrin metabolism: -1.036 | NES, mmu00980 Metabolism of xenobiotics by cytochrome P450: -1.182 | NES, mmu00982 Drug metabolism - cytochrome P450: -1.185 | NES, mmu01250 Biosynthesis of nucleotide sugars: -1.14 | NES, mmu01522 Endocrine resistance: 0.9546 | NES, mmu01523 Antifolate resistance: -0.7817 | NES, mmu02010 ABC transporters: -0.733 | NES, mmu03008 Ribosome biogenesis in eukaryotes: 0.4012 | NES, mmu03015 mRNA surveillance pathway: -0.5314 | NES, mmu03018 RNA degradation: -0.9036 | NES, mmu03022 Basal transcription factors: -0.6056 | NES, mmu03040 Spliceosome: -0.8341 | NES, mmu03060 Protein export: -1.073 | NES, mmu03082 ATP-dependent chromatin remodeling: 0.5087 | NES, mmu03083 Polycomb repressive complex: 0.285 | NES, mmu03250 Viral life cycle - HIV-1: -0.5849 | NES, mmu03410 Base excision repair: 0.509 | NES, mmu03420 Nucleotide excision repair: -0.5668 | NES, mmu03430 Mismatch repair: -0.5004 | NES, mmu03460 Fanconi anemia pathway: -1.065 | NES, mmu04014 Ras signaling pathway: -1.059 | NES, mmu04068 FoxO signaling pathway: 0.8311 | NES, mmu04070 Phosphatidylinositol signaling system: -0.719 | NES, mmu04071 Sphingolipid signaling pathway: -0.7752 | NES, mmu04115 p53 signaling pathway: 0.8074 | NES, mmu04120 Ubiquitin mediated proteolysis: -0.8155 | NES, mmu04130 SNARE interactions in vesicular transport: -0.572 | NES, mmu04136 Autophagy - other: 0.5764 | NES, mmu04137 Mitophagy - animal: -1.12 | NES, mmu04140 Autophagy - animal: -0.941 | NES, mmu04144 Endocytosis: 0.5953 | NES, mmu04146 Peroxisome: 0.8534 | NES, mmu04148 Efferocytosis: 0.8875 | NES, mmu04150 mTOR signaling pathway: -1.035 | NES, mmu04152 AMPK signaling pathway: -1.036 | NES, mmu04210 Apoptosis: 0.7025 | NES, mmu04211 Longevity regulating pathway: 0.8953 | NES, mmu04213 Longevity regulating pathway - multiple species: 0.9083 | NES, mmu04215 Apoptosis - multiple species: 0.9536 | NES, mmu04216 Ferroptosis: -1.019 | NES, mmu04217 Necroptosis: -1.0231 | NES, mmu04270 Vascular smooth muscle contraction: 0.9765 | NES, mmu04360 Axon guidance: 1.086 | NES, mmu04392 Hippo signaling pathway - multiple species: 1.0712 | NES, mmu04514 Cell adhesion molecules: 1.133 | NES, mmu04520 Adherens junction: 0.8769 | NES, mmu04530 Tight junction: -0.672 | NES, mmu04550 Signaling pathways regulating pluripotency of stem cells: 1.1205 | NES, mmu04611 Platelet activation: 0.9386 | NES, mmu04612 Antigen processing and presentation: 0.9078 | NES, mmu04622 RIG-I-like receptor signaling pathway: 0.797 | NES, mmu04623 Cytosolic DNA-sensing pathway: 1.118 | NES, mmu04650 Natural killer cell mediated cytotoxicity: 0.8466 | NES, mmu04658 Th1 and Th2 cell differentiation: 1.107 | NES, mmu04660 T cell receptor signaling pathway: 0.5971 | NES, mmu04662 B cell receptor signaling pathway: 0.8546 | NES, mmu04666 Fc gamma R-mediated phagocytosis: -1.143 | NES, mmu04670 Leukocyte transendothelial migration: 0.7018 | NES, mmu04714 Thermogenesis: -1.042 | NES, mmu04720 Long-term potentiation: 0.7614 | NES, mmu04723 Retrograde endocannabinoid signaling: 1.004 | NES, mmu04726 Serotonergic synapse: 1.185 | NES, mmu04727 GABAergic synapse: 1.114 | NES, mmu04728 Dopaminergic synapse: 0.9578 | NES, mmu04730 Long-term depression: 1.063 | NES, mmu04750 Inflammatory mediator regulation of TRP channels: 0.9151 | NES, mmu04910 Insulin signaling pathway: 1.052 | NES, mmu04912 GnRH signaling pathway: 1.125 | NES, mmu04915 Estrogen signaling pathway: 0.9405 | NES, mmu04916 Melanogenesis: 0.9564 | NES, mmu04917 Prolactin signaling pathway: 0.9333 | NES, mmu04920 Adipocytokine signaling pathway: 1.108 | NES, mmu04929 GnRH secretion: -1.07 | NES, mmu04930 Type II diabetes mellitus: 1.078 | NES, mmu04932 Non-alcoholic fatty liver disease: -1.05 | NES, mmu04934 Cushing syndrome: 0.9692 | NES, mmu04936 Alcoholic liver disease: 0.7413 | NES, mmu04960 Aldosterone-regulated sodium reabsorption: 1.176 | NES, mmu04961 Endocrine and other factor-regulated calcium reabsorption: 0.9748 | NES, mmu04962 Vasopressin-regulated water reabsorption: 1.132
